Experimental data from the NIST ThermoML archive (doi:10.1016/j.jct.2004.09.021).
Numbers after ± are expanded uncertainties.

Columns and labels:
[1] = 101 kPa, Liquid
[2] = refractive index (Na D-line) (dimensionless); conditions: 101.33 kPa, Liquid
[3] = xn = mol fraction of the nth substance listed; conditions: 101 kPa, Liquid
[4] = refractive index (Na D-line) (dimensionless); xn = mol fraction of the nth substance listed; conditions: 101 kPa, Liquid

For `COc1ccccc1` [anisole], the mass density ([1]; 293.15 K) was 993.81 ± 0.53 kg/m3, the viscosity ([1]; 293.15 K) was 1.085 ± 0.018 mPa·s and the mass density ([1]; 298.15 K) was 989.15 ± 0.53 kg/m3. The viscosity ([1]; 298.15 K) was 1.017 ± 0.017 mPa·s, the mass density ([1]; 303.15 K) was 984.42 ± 0.53 kg/m3 and the viscosity ([1]; 303.15 K) was 0.9285 ± 0.016 mPa·s. For the same compound, the refractive index ([2]; 293.15 K) was 1.5161 ± 0.0009, the refractive index ([2]; 298.15 K) was 1.5141 ± 0.0009 and the refractive index ([2]; 303.15 K) was 1.5129 ± 0.0009.
In the case of `COc1ccccc1` [anisole] + CCCCCCCCCCCC, the mass density ([3]; 293.15 K, x1 = 0.0992) is reported as 760.26 ± 0.75 kg/m3, the viscosity ([3]; 293.15 K, x1 = 0.0992) is reported as 1.413 ± 0.023 mPa·s and the mass density ([3]; 293.15 K, x1 = 0.2015) is reported as 773.6 ± 0.73 kg/m3. It also gave a viscosity ([3]; 293.15 K, x1 = 0.2015) of 1.341 ± 0.022 mPa·s, a mass density ([3]; 293.15 K, x1 = 0.2969) of 787.75 ± 0.71 kg/m3 and a viscosity ([3]; 293.15 K, x1 = 0.2969) of 1.272 ± 0.021 mPa·s. For the same compound, the mass density ([3]; 293.15 K, x1 = 0.4102) was 807.23 ± 0.69 kg/m3, the viscosity ([3]; 293.15 K, x1 = 0.4102) was 1.19 ± 0.02 mPa·s and the mass density ([3]; 293.15 K, x1 = 0.4898) was 822.92 ± 0.67 kg/m3. For the same compound, the viscosity ([3]; 293.15 K, x1 = 0.4898) was 1.138 ± 0.019 mPa·s, the mass density ([3]; 293.15 K, x1 = 0.6099) was 850.24 ± 0.64 kg/m3 and the viscosity ([3]; 293.15 K, x1 = 0.6099) was 1.074 ± 0.018 mPa·s. The mass density ([3]; 293.15 K, x1 = 0.702) was 875.28 ± 0.61 kg/m3, the viscosity ([3]; 293.15 K, x1 = 0.702) was 1.039 ± 0.018 mPa·s and the mass density ([3]; 293.15 K, x1 = 0.8023) was 907.62 ± 0.58 kg/m3. It also gave a viscosity ([3]; 293.15 K, x1 = 0.8023) of 1.032 ± 0.017 mPa·s, a mass density ([3]; 293.15 K, x1 = 0.8976) of 944.56 ± 0.56 kg/m3 and a viscosity ([3]; 293.15 K, x1 = 0.8976) of 1.046 ± 0.018 mPa·s. The mass density ([3]; 293.15 K, x1 = 1) was 993.81 ± 0.53 kg/m3, the viscosity ([3]; 293.15 K, x1 = 1) was 1.085 ± 0.018 mPa·s and the mass density ([3]; 298.15 K, x1 = 0.0992) was 756.57 ± 0.76 kg/m3. It also gave a viscosity ([3]; 298.15 K, x1 = 0.0992) of 1.312 ± 0.022 mPa·s, a mass density ([3]; 298.15 K, x1 = 0.2015) of 769.83 ± 0.74 kg/m3 and a viscosity ([3]; 298.15 K, x1 = 0.2015) of 1.248 ± 0.021 mPa·s. The mass density ([3]; 298.15 K, x1 = 0.2969) was 783.97 ± 0.72 kg/m3, the viscosity ([3]; 298.15 K, x1 = 0.2969) was 1.181 ± 0.02 mPa·s and the mass density ([3]; 298.15 K, x1 = 0.4102) was 803.3 ± 0.69 kg/m3. The viscosity ([3]; 298.15 K, x1 = 0.4102) was 1.104 ± 0.019 mPa·s, the mass density ([3]; 298.15 K, x1 = 0.4898) was 818.98 ± 0.67 kg/m3 and the viscosity ([3]; 298.15 K, x1 = 0.4898) was 1.052 ± 0.018 mPa·s. For the same compound, the mass density ([3]; 298.15 K, x1 = 0.6099) was 846.1 ± 0.64 kg/m3, the viscosity ([3]; 298.15 K, x1 = 0.6099) was 0.9944 ± 0.017 mPa·s and the mass density ([3]; 298.15 K, x1 = 0.702) was 871.03 ± 0.61 kg/m3. It also gave a viscosity ([3]; 298.15 K, x1 = 0.702) of 0.9639 ± 0.016 mPa·s, a mass density ([3]; 298.15 K, x1 = 0.8023) of 903.24 ± 0.58 kg/m3 and a viscosity ([3]; 298.15 K, x1 = 0.8023) of 0.9569 ± 0.016 mPa·s. The mass density ([3]; 298.15 K, x1 = 0.8976) was 940.04 ± 0.56 kg/m3, the viscosity ([3]; 298.15 K, x1 = 0.8976) was 0.9718 ± 0.017 mPa·s and the mass density ([3]; 298.15 K, x1 = 1) was 989.15 ± 0.53 kg/m3. The viscosity ([3]; 298.15 K, x1 = 1) was 1.017 ± 0.017 mPa·s, the mass density ([3]; 303.15 K, x1 = 0.0992) was 752.87 ± 0.76 kg/m3 and the viscosity ([3]; 303.15 K, x1 = 0.0992) was 1.197 ± 0.02 mPa·s. The mass density ([3]; 303.15 K, x1 = 0.2015) was 766.07 ± 0.74 kg/m3, the viscosity ([3]; 303.15 K, x1 = 0.2015) was 1.138 ± 0.019 mPa·s and the mass density ([3]; 303.15 K, x1 = 0.2969) was 780.1 ± 0.72 kg/m3. The viscosity ([3]; 303.15 K, x1 = 0.2969) was 1.081 ± 0.018 mPa·s, the mass density ([3]; 303.15 K, x1 = 0.4102) was 799.35 ± 0.7 kg/m3 and the viscosity ([3]; 303.15 K, x1 = 0.4102) was 1.003 ± 0.017 mPa·s. It also gave a mass density ([3]; 303.15 K, x1 = 0.4898) of 814.93 ± 0.68 kg/m3, a viscosity ([3]; 303.15 K, x1 = 0.4898) of 0.9616 ± 0.017 mPa·s and a mass density ([3]; 303.15 K, x1 = 0.6099) of 841.96 ± 0.64 kg/m3. For the same compound, the viscosity ([3]; 303.15 K, x1 = 0.6099) was 0.9147 ± 0.016 mPa·s, the mass density ([3]; 303.15 K, x1 = 0.702) was 866.78 ± 0.62 kg/m3 and the viscosity ([3]; 303.15 K, x1 = 0.702) was 0.8922 ± 0.015 mPa·s. For the same compound, the mass density ([3]; 303.15 K, x1 = 0.8023) was 898.86 ± 0.59 kg/m3, the viscosity ([3]; 303.15 K, x1 = 0.8023) was 0.8858 ± 0.015 mPa·s and the mass density ([3]; 303.15 K, x1 = 0.8976) was 935.51 ± 0.56 kg/m3. The viscosity ([3]; 303.15 K, x1 = 0.8976) was 0.9132 ± 0.016 mPa·s, the mass density ([3]; 303.15 K, x1 = 1) was 984.42 ± 0.53 kg/m3 and the viscosity ([3]; 303.15 K, x1 = 1) was 0.9285 ± 0.016 mPa·s. The refractive index ([4]; 293.15 K, x1 = 0.106) was 1.4239 ± 0.0013, the refractive index ([4]; 293.15 K, x1 = 0.208) was 1.4289 ± 0.0012 and the refractive index ([4]; 293.15 K, x1 = 0.29) was 1.4335 ± 0.0012. For the same compound, the refractive index ([4]; 293.15 K, x1 = 0.391) was 1.4406 ± 0.0011, the refractive index ([4]; 293.15 K, x1 = 0.4886) was 1.4488 ± 0.0011 and the refractive index ([4]; 293.15 K, x1 = 0.607) was 1.4601 ± 0.0011. For the same compound, the refractive index ([4]; 293.15 K, x1 = 0.7055) was 1.4707 ± 0.0011, the refractive index ([4]; 293.15 K, x1 = 0.7845) was 1.4809 ± 0.0011 and the refractive index ([4]; 293.15 K, x1 = 0.88) was 1.4959 ± 0.0011. For the same compound, the refractive index ([4]; 293.15 K, x1 = 1) was 1.5161 ± 0.0009, the refractive index ([4]; 298.15 K, x1 = 0.106) was 1.4199 ± 0.0011 and the refractive index ([4]; 298.15 K, x1 = 0.208) was 1.4251 ± 0.0011. The refractive index ([4]; 298.15 K, x1 = 0.29) was 1.4298 ± 0.0011, the refractive index ([4]; 298.15 K, x1 = 0.391) was 1.4371 ± 0.0011 and the refractive index ([4]; 298.15 K, x1 = 0.4886) was 1.4455 ± 0.001. For the same compound, the refractive index ([4]; 298.15 K, x1 = 0.607) was 1.457 ± 0.001, the refractive index ([4]; 298.15 K, x1 = 0.7055) was 1.4677 ± 0.001 and the refractive index ([4]; 298.15 K, x1 = 0.7845) was 1.4779 ± 0.001. For the same compound, the refractive index ([4]; 298.15 K, x1 = 0.88) was 1.493 ± 0.001, the refractive index ([4]; 298.15 K, x1 = 1) was 1.5141 ± 0.0009 and the refractive index ([4]; 303.15 K, x1 = 0.106) was 1.4163 ± 0.001. For the same compound, the refractive index ([4]; 303.15 K, x1 = 0.208) was 1.4213 ± 0.0011, the refractive index ([4]; 303.15 K, x1 = 0.29) was 1.4263 ± 0.001 and the refractive index ([4]; 303.15 K, x1 = 0.391) was 1.4339 ± 0.001. It also gave a refractive index ([4]; 303.15 K, x1 = 0.4886) of 1.4426 ± 0.001, a refractive index ([4]; 303.15 K, x1 = 0.607) of 1.4545 ± 0.0009 and a refractive index ([4]; 303.15 K, x1 = 0.7055) of 1.4654 ± 0.0009. It also gave a refractive index ([4]; 303.15 K, x1 = 0.7845) of 1.4756 ± 0.0009, a refractive index ([4]; 303.15 K, x1 = 0.88) of 1.4908 ± 0.0009 and a refractive index ([4]; 303.15 K, x1 = 1) of 1.5129 ± 0.0009.
